The values below come from patent publication US8613927B2, “High affinity human antibodies to human nerve growth factor” (Regeneron Pharmaceuticals, Inc., priority 2007, dated 2013).

For experiment [1], the target named is T1, Human NGF (PC12 cells, rat adrenal medulla cell line) (Homo sapiens, UniProt P01138, DEL136-138/DEL208-209).
T1 construct: host or cells: NGF added exogenously; receptors endogenous in PC12 cells
Put plainly: PC12 SRE-luciferase assay of NGF signaling through p75 and TrkA. In kind it is cell-based. The protocol:
The ability of NGF antibodies to block NGF signaling p75 and TrkA receptor-mediated activity was also measured in vitro using a rat adrenal medulla cell line, PC12, which express both receptors endogenously (Urdiales et al. 1998 J. Neuroscience 18(17):6767-6775). Briefly, PC12 cells were stably transfected with a reporter plasmid containing a serum response element (SRE) linked to a luciferase gene. The transfected cells were resuspended at approximately 2.5×10^5 cells per ml and plated at 50,000 cells per well in a 96-well tissue culture plate in Opti-MEM media overnight. The purified antibody proteins were serially diluted in medium (DMEM plus 0.1% BSA) and added to the plated cells at concentrations ranging from 0 to 100 nM. Human NGF was added to the wells to a final concentration of 12.5 pM. Luciferase activity was measured after incubating the cells for 6 hours at 37° C. in a humidified 7.5% CO2 incubator using BRIGHT GLOW™ luciferase assay system (Promega). Control mAb=RN624.

Another experiment deals with C57BL/6 male mice. Put plainly: Complete Freund's Adjuvant (CFA) test of inflammatory pain, Hargreaves' test. It counts as in vivo, mouse. On the procedure: Complete Freund's Adjuvant (CFA) test of inflammatory pain. To determine if anti-NGF antibodies could relieve pain in a chronic peripheral inflammatory mouse model, complete Freund's adjuvant (CFA) was injected subcutaneously (s.c.) into the hind paw of C57BL/6 male mice, causing thermal hyperalgesia, which was measured using the Hargreaves' test (Torres et al. (2007) Pain 130:267-278). Control mice received the vehicle (i.e., PBS) only. After acclimating the mice to the Hargreaves' apparatus (model 336, IITC Life Science) for 2-3 hours per day for 3 days, they were tested in the apparatus with an active intensity setting of 17%. A cut-off time of 25 sec was used to avoid tissue damage. For each mouse, 3 readings were obtained during a period of 30 min per day and the median latency was used for analysis. […] The Hargreaves' test was repeated daily for up to 4 days after CFA injection and % decrease from the baseline in paw withdrawal latency calculated (Tables 12 and 13, mean % change±SEM). […] There was no statistical difference between the tested antibodies and the control antibody. Table 12: n=7 for each group; all groups 10 mg/kg.

Another experiment concerns the target rat NGF (rNGF) (Rattus norvegicus, UniProt P25427). Description: BIACORE binding affinity to rat NGF. The protocol:
(§1) Antigen binding affinities of the antibodies for human NGF were determined by surface kinetics using a real-time biosensor surface plasmon resonance assay (BIACORE™). Antibodies were captured on either a goat, anti-human or anti-mouse IgG polyclonal antibody surface created by direct amine coupling of the capture antibody to a BIACORE™ chip. Various concentrations of human NGF were injected over the captured antibody surfaces while the association of the antigen to the antibody and the dissociation of the bound complex were monitored in real time. Kinetic analysis was performed to obtain the equilibrium dissociation constant (KD) and dissociation rate constant, and the latter was used to calculate the antigen/antibody complex dissociation t1/2 (Table 1).
(§2) Human NGF (NGF) is highly homologous in amino acid sequence to mouse NGF (mNGF) and rat NGF (rNGF) with about 90% identity. The binding affinities of the antibodies to both mNGF and rNGF were determined as described above.
(§3) The binding affinity of selected purified anti-NGF antibodies to mNGF and rNGF were also determined (Table 6).

Experiment [2] addresses T2, NT-3 signaling through TrkC (engineered HEK293 cell line expressing TrkC) (Homo sapiens, UniProt P20783).
T2 construct: host or cells: NT-3 added exogenously; partner TrkC made by an engineered HEK293 line
T2 sequence (P20783 139-257): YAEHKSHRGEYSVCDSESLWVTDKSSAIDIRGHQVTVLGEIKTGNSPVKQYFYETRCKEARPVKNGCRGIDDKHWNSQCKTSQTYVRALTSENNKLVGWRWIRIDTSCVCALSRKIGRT
Put plainly: HEK293/TrkC SRE-luciferase bioassay of NT-3 signaling. In kind it is cell-based. To be noted: 15 pM NT-3; 6 hours; read-out: IC50, inhibition of NT-3-mediated luciferase activity. On the procedure: An engineered HEK293 cell line expressing TrkC was transfected with a SRE-luciferase reporter plasmid. NT-3 drives luciferase expression in a 6-hour assay. […] The engineered HEK293 cell line was seeded onto 96-well plates at 1×10^4 cells/well in serum-free media and incubated overnight at 37° C., 5% CO2. […] The cells were then incubated at 37° C., 5% CO2 for 6 hours. Luciferase activity was determined by adding an equal well volume of BRIGHT GLOW™ (Promega).

The next experiment concerns the target T3, human NT-3 (Homo sapiens, UniProt P20783).
T3 sequence (P20783 139-257): T2 sequence (P20783 139-257)
Put plainly: BIACORE cross-reactivity test, NT-3. In kind it is binding. As to conditions: NT-3 1.25 nM to 40 nM; purified antibodies. On the procedure: The anti-NGF antibodies were examined for binding cross-reactivity with human NT-3. Briefly, goat anti-human IgG polyclonal antibody was chemically linked to a CM5 chip. Anti-NGF monoclonal antibodies were injected forming a surface of about 50 to 900 RU of immobilized antibody through the interaction with the chip coupled polyclonal antibodies. […] Both association and dissociation phases were monitored and data were analyzed. Results are shown in Table 3 (NB=no binding activity observed).

The next experiment has as its system C57BL/6 mice. Put plainly: Post-operative incision pain model, weight bearing test. In kind it is in vivo, mouse. To be noted: for mean percent weight distribution on affected limb: Table 15. The protocol: Post-operative incision pain model. A rodent model of post-operative pain in which a hind paw plantar incision causes increased sensitivity to touch, guarding behavior, and thermal hyperalgesia, was used to study the efficacy of anti-NGF antibody therapy. For the plantar incision surgery, C57BL/6 mice under isoflurane received an incision through skin, fascia and then isolating the underlying flexor muscle and bisecting vertically. After suture and recovery, the mice were tested for thermal hyperalgesia in the Hargreaves' test and for guarding behavior in the weight bearing test (model 600, IITC Life Science) for 5 days.

A further experiment addresses mouse NGF (mNGF) (Mus musculus, UniProt P01139). Put plainly: BIACORE binding affinity to mouse NGF. On the procedure:
as §1, §2, §3

Setting [3] is: Table 6, selected purified antibodies.

pIC50, pKd: −log10 of the molar value. Where two headings read alike, the source gives them in different places.

rat NGF (rNGF), sequence (P25427 122-241): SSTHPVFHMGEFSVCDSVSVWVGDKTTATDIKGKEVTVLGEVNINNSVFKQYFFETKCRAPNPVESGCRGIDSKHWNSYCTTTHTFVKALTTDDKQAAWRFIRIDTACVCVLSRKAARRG
T1 sequence (P01138 with tags, fused parts or gaps DEL136-138/DEL208-209): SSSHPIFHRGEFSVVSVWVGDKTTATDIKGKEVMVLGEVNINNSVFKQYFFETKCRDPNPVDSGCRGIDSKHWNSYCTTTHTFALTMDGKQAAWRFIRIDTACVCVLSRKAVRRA
mouse NGF (mNGF), sequence (P01139 122-241): as the sequence (P25427 122-241) above, with G40A, K50R, P61S, D94E, A117T counted along it

tanezumab [RN624]: the pIC50 was 10.68 in experiment [1] (Table 10, 12.5 pM human NGF, 6 hours, read-out: PC12 IC50); 11.31 in experiment [1] (Table 11, selected purified antibodies, PC12 luciferase, read-out: IC50); 6.70 to 6.82 in experiment [2]. In addition, the “% decrease from the baseline in paw withdrawal latency” value with C57BL/6 male mice (Table 12, 10 mg/kg s.c. 1 hr before CFA, Baseline, mean±SEM) is on record as 0.0 ± 0.0%; with C57BL/6 male mice (Table 12, 10 mg/kg s.c., Day 1 after CFA), −58.3 ± 5.5%; in the experiment with C57BL/6 male mice (Table 12, 10 mg/kg s.c., Day 2 after CFA) it was −30.9 ± 5.2%; in the experiment with C57BL/6 male mice (Table 12, 10 mg/kg s.c., Day 3 after CFA), −20.7 ± 6.3%; with C57BL/6 male mice (Table 13, 10 mg/kg s.c., Baseline), 0.0 ± 0.0%; in the experiment on C57BL/6 male mice (Table 13, 10 mg/kg s.c., Day 1 after CFA) it was −61.7 ± 9.7%. Moreover, the “% decrease from the baseline in paw withdrawal latency” value is listed as −33.1 ± 17.9% in the experiment on C57BL/6 male mice (Table 13, 10 mg/kg s.c., Day 2 after CFA); −9.6 ± 15.4% in the experiment on C57BL/6 male mice (Table 13, 10 mg/kg s.c., Day 3 after CFA); −0.4 ± 18.5% in the experiment on C57BL/6 male mice (Table 13, 10 mg/kg s.c., Day 4 after CFA). In addition, the pKd was 11.82 with rat NGF (rNGF) (Table 5); 11.82 with rat NGF (rNGF) (setting [3]); 8.96 with human NT-3; 11.85 in the experiment with mouse NGF (mNGF) (Table 5); 11.85 with mouse NGF (mNGF) (setting [3]). Also, the “reduction of post-operative pain vs vehicle, weight bearing test” value in the experiment with C57BL/6 mice (10 mg/kg s.c. 1 hr prior to incision, p<0.001-0.05) is given as “significantly reduced the post-operative pain”. Besides, the “mean percent weight distribution on affected limb” value in the experiment with C57BL/6 mice (10 mg/kg s.c. pre-incision, Day 0, ±SEM) worked out at 49.0 ± 0.5%; in the experiment with C57BL/6 mice (10 mg/kg, Day 1 after surgery), 44.8 ± 1.9%; in the experiment on C57BL/6 mice (10 mg/kg, Day 2 after surgery), 42.7 ± 1.8%; with C57BL/6 mice (10 mg/kg, Day 3 after surgery), 48.7 ± 1.9%; in the experiment with C57BL/6 mice (10 mg/kg, Day 4 after surgery) it was 47.2 ± 1.2%; with C57BL/6 mice (10 mg/kg, Day 5 after surgery), 49.7 ± 0.7%.
